According to patent US20250066286A1, “COMPOSITIONS OF (Z)-ENDOXIFEN AND METHODS OF ENRICHMENT THEREOF” (Atossa Therapeutics, Inc., priority 2022, published 2025):
In brackets after ≈: the same amount, converted by molar mass. Where two headings read alike, the source gives them in different places.

Key:
[1] = Slurries of (Z)-endoxifen in solvent mixtures (XRPD); type: physicochemical; conditions: for Output Crystallinity [high/low/SC/oriented]: 50° C., 1 d
Protocol: Slurry experiments were performed with solvents with 50° C. (Z)-endoxifen was suspended in 500 μl of the solvent mixture to achieve the concentrations of 40 mg/ml or 100 mg/ml. The resultant solutions were stored at 50° C. for one day. For solvent mixtures which included acetone, the slurry was instead stored at 40° C. The suspensions were then recovered and filtered with a nylon filter (0.22 μm) during centrifugation at 4000 rpm for 3 minutes, and the collected solid (Z)-endoxifen was analyzed by XRPD as shown in FIG. 85-FIG. 91 and FIG. 1-FIG. 5.

[2] = Solubility testing of (Z)-endoxifen in single solvents; type: physicochemical; conditions: for solubility at 15 min: 25 °C; for solubility at 15 min / solubility: organic solvent or mixture, thermodynamic from solid
Protocol: To test the solubility of (Z)-endoxifen in varying conditions, 10 mg of (Z)-endoxifen was added to a stoppered tube, and 0.01 ml of the selected solvent was added (1000 mg/ml solution). The tube was shaken vigorously for 1 minute and then incubated at a constant temperature of 25.0° C. for 15 minutes. If the solid was not completed dissolved, the tube was shaken again and placed at the constant temperature of 25.0° C. for another 15 minutes. If the solid was completely dissolved at this step, it was considered to be very soluble in the selected solvent system. If the solid was not dissolved by this step, another 0.09 ml was added (yielding a 100 mg/ml solution) and an attempt to further dissolve the solid was made by the same steps of shaking and incubating twice over as described previously. If the solid was completely dissolved at this step, it was considered freely soluble. If the solid was not dissolved by this step another 0.2 ml was added (yielding a 33.3 mg/ml solution) and an attempt to further dissolve the solid was made by the same steps of shaking and incubating twice over as described previously. If the solid was completely dissolved at this step, it was considered soluble. If the solid was not dissolved by this step another, 0.7 ml was added (yielding a 10 mg/ml solution) and an attempt to further dissolve the solid was made by the same steps of shaking and incubating twice over as described previously. If the solid was completely dissolved at this step, it was considered sparingly soluble. If the solid was not dissolved by this step the sample was considered to be slightly soluble or very slightly soluble and the solution was heated until the boiling point of the solvent system (max 100° C.) under stirring with a rate of 0.5° C. per minute temperature ramp rate to verify the solubility at high temperatures. The hot solution was after cooled to room temperature with a cooling rate of 0.5° C. per minute to verify if the sample had precipitated after up to 18 hours under magnetic stirring. The same procedure was also used for the solvent mixture solubility tests. The concentrations investigated for the solvent mixture stability were 40 mg/ml and 100 mg/ml. Some solutions in the following example were precipitated by cooling of the solution from a temperature between 50-100° C. to between 10-25° C. at a rate ranging from −0.2 to −0.5° C./minute resulting in a precipitate.

Output Crystallinity [high/low/SC/oriented] ([1]; SLHT-1D-H2O/THF(40 mg/ml), FIG. 3: water/tetrahydrofuran 95/5, 40 mg/mL): low | Output Crystallinity [high/low/SC/oriented] ([1]; SLHT-1D-HEP/TOL(100 mg/ml), FIG. 89: heptane/toluene 50/50, 100 mg/mL): low | Polymorphic form recovered (XRPD) ([1]; all solvent mixture slurries, 40 or 100 mg/ml, 50° C. (40° C. with acetone), one day): Form I with varying degrees of purity | solubility at 15 min ([2]; 2-propanol, 2-propanol, room temperature, read-out: Solubility): 10000 µg/mL (≈ 26.8 mM) | solubility at 15 min ([2]; 2-propanol, solvent 2-propanol, room temperature, read-out: Solubility at RT): 10000 µg/mL (≈ 26.8 mM) | solubility ([2]; 2-propanol, 2-propanol, high temperature, read-out: Solubility): 20000 to 100000 µg/mL (≈ 53.5 to 268 mM) | solubility at 15 min ([2]; 4-met-2-pentanone, 4-met-2-pentanone, room temperature, read-out: Solubility): 10000 µg/mL (≈ 26.8 mM) | solubility ([2]; 4-met-2-pentanone, 4-met-2-pentanone, high temperature, read-out: Solubility): 100000 to 200000 µg/mL (≈ 268 to 535 mM) | solubility at 15 min ([2]; DMF, DMF, read-out: Solubility): 250000 to 500000 µg/mL (≈ 669 to 1340 mM) | solubility at 15 min ([2]; THF, THF, read-out: Solubility): 111000 to 125000 µg/mL (≈ 297 to 335 mM) | solubility at 15 min ([2]; acetone, acetone, room temperature, read-out: Solubility): 10000 µg/mL (≈ 26.8 mM) | solubility at 15 min ([2]; acetone, solvent acetone, room temperature, read-out: Solubility at RT): 10000 µg/mL (≈ 26.8 mM) | solubility ([2]; acetone, acetone, high temperature, read-out: Solubility): < 50000 µg/mL | solubility ([2]; acetone, solvent acetone, 100 mg/mL, high temperature, read-out: Solubility HT (100 mg/mL): Sol. HT): < 100000 µg/mL | solubility at 15 min ([2]; acetonitrile, acetonitrile, room temperature, read-out: Solubility): < 10000 µg/mL | solubility at 15 min ([2]; acetonitrile, solvent acetonitrile, room temperature, read-out: Solubility at RT): < 10000 µg/mL | solubility ([2]; acetonitrile, acetonitrile, high temperature, read-out: Solubility): 20000 to 100000 µg/mL (≈ 53.5 to 268 mM) | solubility ([2]; acetonitrile, solvent acetonitrile, 100 mg/mL, high temperature, read-out: Solubility HT (100 mg/mL): Sol. HT): < 100000 µg/mL | solubility at 15 min ([2]; butyl acetate, butyl acetate, room temperature, read-out: Solubility): 10000 µg/mL (≈ 26.8 mM) | solubility at 15 min ([2]; butyl acetate, solvent butyl acetate, room temperature, read-out: Solubility at RT): 10000 µg/mL (≈ 26.8 mM) | solubility ([2]; butyl acetate, butyl acetate, high temperature, read-out: Solubility): 20000 to 100000 µg/mL (≈ 53.5 to 268 mM) | solubility at 15 min ([2]; butyl methyl ether, solvent butyl methyl ether, room temperature, read-out: Solubility at RT): 10000 µg/mL (≈ 26.8 mM) | solubility ([2]; butyl methyl ether, solvent butyl methyl ether, 10 mg/mL, high temperature, read-out: Solubility HT (10 mg/mL): Sol. HT): < 10000 µg/mL | solubility at 15 min ([2]; dimethylformamide (stored as limethylformamide), solvent limethylformamide, room temperature, read-out: Solubility at RT): 200000 to 250000 µg/mL (≈ 535 to 669 mM) | solubility at 15 min ([2]; ethanol, ethanol, room temperature, read-out: Solubility): 10000 µg/mL (≈ 26.8 mM) | solubility at 15 min ([2]; ethanol, solvent ethanol, room temperature, read-out: Solubility at RT): 10000 µg/mL (≈ 26.8 mM) | solubility ([2]; ethanol, ethanol, high temperature, read-out: Solubility): 20000 to 100000 µg/mL (≈ 53.5 to 268 mM) | solubility at 15 min ([2]; ethyl acetate, ethyl acetate, room temperature, read-out: Solubility): 10000 µg/mL (≈ 26.8 mM) | solubility at 15 min ([2]; ethyl acetate, solvent ethyl acetate, room temperature, read-out: Solubility at RT): 10000 µg/mL (≈ 26.8 mM) | solubility ([2]; ethyl acetate, ethyl acetate, high temperature, read-out: Solubility): 20000 to 100000 µg/mL (≈ 53.5 to 268 mM) | solubility at 15 min ([2]; heptane, heptane, room temperature, read-out: Solubility): < 10000 µg/mL | solubility at 15 min ([2]; heptane, solvent heptane, room temperature, read-out: Solubility at RT): < 10000 µg/mL | solubility ([2]; heptane, heptane, high temperature, read-out: Solubility): < 10000 µg/mL | solubility ([2]; heptane, solvent heptane, 10 mg/mL, high temperature, read-out: Solubility HT (10 mg/mL): Sol. HT): < 10000 µg/mL | solubility at 15 min ([2]; methanol, methanol, read-out: Solubility): 17000 to 20000 µg/mL (≈ 45.5 to 53.5 mM) | solubility at 15 min ([2]; methanol, solvent methanol, room temperature, read-out: Solubility at RT): 17000 to 20000 µg/mL (≈ 45.5 to 53.5 mM) | solubility at 15 min ([2]; methyl isobutyl ketone (4-methyl-2-pentanone), solvent methyl isobutyl ketone (4-methyl-2-pentanone), room temperature, read-out: Solubility at RT): 10000 µg/mL (≈ 26.8 mM) | Solubility HT (10 mg/mL): Clear point ([2]; solvent 2-propanol, 10 mg/mL): 44 °C | Solubility HT (10 mg/mL): Sol. HT ([2]; solvent 2-propanol, 10 mg/mL, high temperature): YES | Solubility HT (20 mg/mL): Clear point ([2]; solvent 2-propanol, 20 mg/mL): 50.6 °C | Solubility HT (20 mg/mL): Sol. HT ([2]; solvent 2-propanol, 20 mg/mL, high temperature): YES | Solubility HT (20 mg/mL): Re-PPT ([2]; solvent 2-propanol, 20 mg/mL, on cooling): YES | Solubility HT (100 mg/mL): Clear point ([2]; solvent 2-propanol, 100 mg/mL): 74.4 °C | Solubility HT (100 mg/mL): Cloudy point ([2]; solvent 2-propanol, 100 mg/mL): 43.9 °C | Solubility HT (100 mg/mL): Sol. HT ([2]; solvent 2-propanol, 100 mg/mL, high temperature): YES | Solubility HT (100 mg/mL): Re-PPT ([2]; solvent 2-propanol, 100 mg/mL, on cooling): YES | Solubility HT (10 mg/mL): Clear point ([2]; solvent acetone, 10 mg/mL): 30 °C | Solubility HT (10 mg/mL): Sol. HT ([2]; solvent acetone, 10 mg/mL, high temperature): YES | Solubility HT (20 mg/mL): Clear point ([2]; solvent acetone, 20 mg/mL): 38 °C | Solubility HT (20 mg/mL): Re-PPT after 18 hours at −20° C. ([2]; solvent acetone, 20 mg/mL): YES | Solubility HT (20 mg/mL): Sol. HT ([2]; solvent acetone, 20 mg/mL, high temperature): YES | Solubility HT (10 mg/mL): Clear point ([2]; solvent acetonitrile, 10 mg/mL): 56 °C | Solubility HT (10 mg/mL): Sol. HT ([2]; solvent acetonitrile, 10 mg/mL, high temperature): YES | Solubility HT (10 mg/mL): Re-PPT ([2]; solvent acetonitrile, 10 mg/mL, on cooling): YES | Solubility HT (20 mg/mL): Clear point ([2]; solvent acetonitrile, 20 mg/mL): 75 °C
SMILES: CC/C(=C(\c1ccc(O)cc1)c1ccc(OCCNC)cc1)c1ccccc1 [(Z)-endoxifen, (Z)-4-(1-(4-(2-(methylamino)ethoxy)phenyl)-2-phenylbut-1-enyl)phenol]
